Assay [1] deals with T1, Hexokinase-4 (Homo sapiens) (UniProt P35557).
T1 sequence (whole entry): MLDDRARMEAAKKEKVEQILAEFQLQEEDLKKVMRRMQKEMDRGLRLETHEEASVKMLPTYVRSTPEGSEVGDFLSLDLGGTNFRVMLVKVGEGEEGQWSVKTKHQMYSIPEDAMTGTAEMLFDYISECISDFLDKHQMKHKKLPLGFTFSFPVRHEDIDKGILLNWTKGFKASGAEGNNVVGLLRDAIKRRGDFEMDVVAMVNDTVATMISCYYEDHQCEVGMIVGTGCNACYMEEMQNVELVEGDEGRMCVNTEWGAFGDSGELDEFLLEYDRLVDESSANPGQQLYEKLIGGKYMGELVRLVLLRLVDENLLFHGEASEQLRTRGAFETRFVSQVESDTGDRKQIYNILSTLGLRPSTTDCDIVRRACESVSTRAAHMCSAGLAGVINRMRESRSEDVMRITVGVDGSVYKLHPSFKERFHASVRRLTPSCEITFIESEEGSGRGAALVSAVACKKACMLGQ
Nature of the assay: Activation of glucokinase (unknown origin) at 10 uM relative to control.

Assay [2] concerns the target T2, Peroxisome proliferator-activated receptor gamma (Homo sapiens) (UniProt P37231).
T2 sequence (whole entry): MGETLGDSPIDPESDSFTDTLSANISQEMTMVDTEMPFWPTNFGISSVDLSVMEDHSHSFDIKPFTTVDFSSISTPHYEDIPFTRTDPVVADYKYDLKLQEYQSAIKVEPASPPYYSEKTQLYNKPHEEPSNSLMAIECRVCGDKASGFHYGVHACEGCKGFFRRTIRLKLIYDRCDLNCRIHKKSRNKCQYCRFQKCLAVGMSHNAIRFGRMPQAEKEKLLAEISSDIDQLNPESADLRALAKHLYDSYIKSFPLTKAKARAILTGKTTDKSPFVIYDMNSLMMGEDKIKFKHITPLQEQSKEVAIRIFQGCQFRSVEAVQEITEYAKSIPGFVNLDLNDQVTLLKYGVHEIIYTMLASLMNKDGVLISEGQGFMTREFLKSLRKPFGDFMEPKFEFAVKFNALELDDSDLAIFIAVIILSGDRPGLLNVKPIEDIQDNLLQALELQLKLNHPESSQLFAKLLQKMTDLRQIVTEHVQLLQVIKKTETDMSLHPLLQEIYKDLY
The experiment in a line: Agonist activity at PPARgamma (unknown origin) at 10 uM by luciferase reporter gene assay relative to control. (In general: In a reporter assay the amount or activity of a reporter protein is the signal.)

Assay [3] has as its target T2, Peroxisome proliferator-activated receptor gamma (Homo sapiens). Nature of the assay: Transactivation of PPARgamma (unknown origin) expressed in HEK293 cells at 10 uM after 24 to 48 hrs by luciferase reporter gene assay relative to control. The assay is classed as cell-based.
For assay [4], the target named is T1, Hexokinase-4 (Homo sapiens). The experiment in a line: Activation of recombinant human glucokinase assessed as conversion of D-glucose to D-glucose-6-phosphate dehydrate at 10 uM by G6PDH/NADP coupled assay relative to control.

Structures are written as SMILES.

In the case of `O=C(Cc1ccc(/C=C2\SC(=O)NC2=O)cc1[N+](=O)[O-])Nc1ccccn1`, in assay [1], the fold change (FC) was 2.9. This compound also came in with an Efficacy in assay [2] of 47.1%.
With `CCCOc1ccc(OCc2cccc(F)c2)cc1C(=O)Nc1ccc(C(=O)O)cn1`, the Efficacy in assay [3] came out at 52.7%. Moreover, the fold change (FC) in assay [4] came to 1.7.
Compound `CC(C)OC(=O)c1ccc(NC(=O)Cc2ccc(/C=C3\SC(=O)NC3=O)cc2[N+](=O)[O-])nc1` registered a fold change (FC) in assay [1] of 2.9. This compound also came in with an Efficacy in assay [2] of 48%.
On the same counts, the results for `CCOC(=O)c1ccc(NC(=O)Cc2ccc(/C=C3\SC(=O)NC3=O)cc2[N+](=O)[O-])nc1` are 2.7 and 47.4%.
